Data published in patent US7264947B2, “Activity dependent neurotrophic factor III (ADNF III)” (United States of America, as represented by the Secretary …, priority 1997, dated 2007).
Values joined by “and” are separate entries in the source; they are usually repeats but may differ in a detail not shown here. Equal entries are not always repeated. “Also recorded” adds a separate entry of the source.

What was measured:
[1] = tested on: cerebral cortical cultures; assay type: cell-based, newborn rats; conditions: 1 μM tetrodotoxin, five days; P<0.01
[2] = tested on: cerebral cortical cultures; experiment: neuroprotection against β-amyloid peptide (25-35) neurotoxicity in cerebral cortical cultures; assay type: cell-based, newborn rats; conditions: 25 μM β-amyloid fragment 25-35, five days; P<0.01
[3] = tested on: cerebral cortical cultures; experiment: neuroprotection against NMDA toxicity in cerebral cortical cultures; assay type: cell-based, newborn rats; conditions: NMDA 10 μM
[4] = tested on: cerebral cortical cultures; experiment: protection from naturally occurring cell death in cerebral cortical cultures; assay type: cell-based, newborn rats; conditions: FIG. 6C, no toxin added
[5] = structure-activity studies of ADNF III peptides (FIGS. 7A and 7B); assay type: cell-based
[6] = tested on: choline acetyl transferase; experiment: brain ChAT (choline acetyl transferase) activity in ApoE-deficient mice; assay type: in vivo; conditions: daily subcutaneous injections from birth to 14 days, measured at 21 days
Procedure: The graph depicts incorporation of radio-labeled choline into acetylcholine. Experiments were conducted as described. Apo-E deficient mice are designated: ApoE; 100% activity in the control (C57B6) mice indicated 669758.4 pmole/mg protein/min. As the experiments were repeated 3-5 times the results were standardized against the control calibrated at 100% per each experiment. ApoE-deficient mice daily injected with peptides are designated ADNF-14, ADNF-9, and NAP, respectively.
ChAT activity was measured according to published procedures (Formum et al., Neurochem. 24:407-409 (1975)). Brains were homogenized with 10 volumes of 50 mM phosphate buffer containing 300 mM NaCl, 20 mM EDTA, and 0.5% triton. The homogenates were centrifuged at 12,000×g for 15 min., and […] of supernatant was mixed with […] of a solution of […] ^14C-acetyl CoA ([…] NEN), 20 mM acetylcholine, 1.6 mM choline chloride, 0.25 mM eserine, and phosphate buffer. Incubation was 15 min. at 37° C. The reaction was terminated and radioactivity was measured in a beta-counter. • 21. Apolipoprotein E (ApoE) Deficient Mouse Model
(§1) ApoE knockout mice and normal controls were a gift from the late Prof. Shlomo Eisenberg of Tel Aviv University, originally provided by Dr. J. L. Breslow (Plump et al., Cell 71:343-353 (1992)). The ApoE knockout mice were obtained from embryonic stem cells OLA 129 in C57B6×FVB mice (as described). Age-matched controls were inbred C57B6 mice. Groups of mouse pups were treated from birth until the age of 14 days. Daily subcutaneous injections included: […] saline (days 1 through 4), […] saline (days 5 through 10) and […] saline (days 11-14).
ChAT activity was measured according to published procedures (Formum et al., Neurochem. 24:407-409 (1975)).

ADNF III mRNA = experiment: northern blot of ADNF III mRNA in brain of ApoE-deficient mice; assay type: in vivo; conditions: 28-day-old ApoE-deficient mice, daily injections for the first two weeks of life
Procedure: FIG. 9 illustrates northern blot identification of ADNF III mRNA. RNA was extracted from the brains of 28-day-old apolipoprotein E-deficient mice (E) treated with saline for the first two weeks of life or with NAP (E+N), control mice (C) were treated with saline. RNA was subjected to northern blot hybridization with a PCR-labeled ADNF III specific probe (α-^32P-dCTP, Amersham, 3000 Ci/mmol) (see FIG. 2) in comparison to an actin-specific probe (Gozes et al., Mol. Brain Res. 2:137-148 (1987)).
b. Hybridization: The blots were prehybridized for two hours at 55° C. and were hybridized with a specific complementary DNA probe for the mouse ADNF III cDNA (a PCR product obtained using the following primers: 61-79 and the complementary strand from position 438-455, which are described in detail below). The labeled probe was prepared by random priming and incubated with the blot for 16 hours at 55° C. Prehybridization and hybridization solutions (12 ml/blot) contained the following: 50% formamide (deionized using mixed bed resin, Sigma), 50 mM sodium phosphate buffer (pH 6.5), 0.8 M NaCl, 1 mM EDTA, 5× Denhart's reagent (0.05% BSA, 0.05% polyvinylpyrrolidone and 0.05% Ficoll), 0.1% SDS and […] poly(A). The labeled probe was dissolved in 12 ml of hybridization solution and added to the prehybridization mixture. […]

ApoE-deficient mice = experiment: developmental milestones (placing response, cliff avoidance) in ApoE-deficient mice; assay type: in vivo
Description: Animals (15-37 per experimental group, 5-8 per litter) were submitted to placing response assays daily following injection of: 1. saline (open circles, C57B6 mice=control, n=37, closed circles, ApoE deficient=ApoE, n=22). Experiments were repeated three times. Score indicates: 0=no reaction, 1=time to acquire a response shorter than 15 seconds; 2=time to acquire a response shorter than 10 seconds; 3=time to acquire a response shorter than 5 seconds. Age (days) indicate: the age of the tested animals in days. Results are mean±SEM.
as §1
Developmental milestones were measured using at least three dams with […] each for every experimental point. All observations were made between 12 noon and 4 pm. From day one through day six, mice were weighed and tested 60 min. after the daily injection. Placing is a behavioral parameter that is measured as the time elapsing between contact of the foot against the edge of an object and its placing on the top of the same object.
Further measurements in the Apo-E-deficient mouse included assessments of the time of onset of developmental milestones of behavior. […] A significant difference was observed among the treatment groups on the first day of testing (P<0.0001), with inbred C57B6 mice developing faster than the ApoE-deficient animals. […] NAP-treated animals were the fastest.

Asn-Ala-Pro-Val-Ser-Ile-Pro-Gln [NAP]
concentrations of significant neuroprotection against tetrodotoxin [1]: 10^−18-10^−14 M | concentrations of significant neuroprotection against β-amyloid [2]: 10^−16 M and 10^−15 M | concentrations of significant neuroprotection against NMDA [3]: > 10^−16 M | protection from naturally occurring cell death [4]: protected neurons | relative activity in structure-activity studies [5]: most active peptide | peak optimum concentrations ([5]; two peaks, listed as NAPVSIPQ): 10^−16-10^−14 M and 10^−11-10^−10 M | brain ChAT activity compared with inbred C57B6 mice [6]: not significantly different; also recorded: indistinguishable from controls | brain ChAT activity compared with vehicle-treated or untreated ApoE-deficient mice [6]: significantly improved | ADNP mRNA content (ADNF III mRNA): did not change | placing response from the second postnatal day onwards (ApoE-deficient mice; P<0.0001): best performers | acquisition of the placing response and the cliff avoidance response (ApoE-deficient mice; daily injection): showed acceleration | marked improvement of placing response at the first day of treatment (ApoE-deficient mice; tested 60 min. after injection): marked improvement; also recorded: the fastest
